{"source": "the supplement of paper PMC11208160"}
{"experiment": "recombinant barcode read abundance after kanamycin selection (control-corrected) (log10(CPM+1)); higher = more efficient recombination; sequences stand for … in AGTGCAGAGAAAATCGGCCAGTTTTCTCTGCCTGCAGTCCGCATGCCGT…AGATTTATGCAGCGGACTGCCTTTCTCCCAAAGTGATAAACCGGACAGTATCATGGACCGGTTTTCCCGGTAATCCGTATTTGCAAGGTTGGTTTCACT; site = the 11-nt target", "summary_of_the_method": "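A promoter, a target, a barcode and the first 104 bridge RNA bases under J23119 made up each oligo. Oligos were Gibson-cloned into a vector bearing the other 73 bp and a T7-inducible recombinase, then co-electroporated into E. coli with a donor plasmid and plated in duplicate on chloramphenicol/ampicillin LB agar (control) or chloramphenicol/ampicillin/kanamycin with 0.1 mM IPTG. Recombination efficiency is the averaged, control-corrected counts per million of recombinant-junction barcodes. Reported values are log10(CPM+1).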"}
{"sequence": "CTCTGGACTTGGGTTCTAACCTGTTGCAC (site CTGTGGACTCT)", "recombinant barcode read abundance (log10)": 0.058}
{"sequence": "CTCTGGGCTTGGGTTCTAACCTGTTGCCT (site CTCTAGGCTAG)", "recombinant barcode read abundance (log10)": 0.179}
{"sequence": "CTCTGGGCTTGGGTTCTAACCTGTTGCCT (site CTCTCGGCTAG)", "recombinant barcode read abundance (log10)": 0.29}
{"sequence": "CTCTGGGCTTGGGTTCTAACCTGTTGCCT (site CTCTGGGCTAG)", "recombinant barcode read abundance (log10)": 0.15}
{"sequence": "CTCTGGGCTTGGGTTCTAACCTGTTGCCT (site CTCTTGGCTAG)", "recombinant barcode read abundance (log10)": 0.198}
{"sequence": "CTCTTGGCTTGGGTTCTAACCTGTTGCCT (site CTCTAGGCTAG)", "recombinant barcode read abundance (log10)": 0.261}
{"sequence": "CTCTTGGCTTGGGTTCTAACCTGTTGCCT (site CTCTCGGCTAG)", "recombinant barcode read abundance (log10)": 0.139}
{"sequence": "CTCTTGGCTTGGGTTCTAACCTGTTGCCT (site CTCTGGGCTAG)", "recombinant barcode read abundance (log10)": 0.0739}
{"sequence": "CTCTTGGCTTGGGTTCTAACCTGTTGCCT (site CTCTTGGCTAG)", "recombinant barcode read abundance (log10)": 0.0663}
{"sequence": "CTCTTGTCTTGGGTTCTAACCTGTTGCCA (site CGCTTGTCTCG)", "recombinant barcode read abundance (log10)": 0.391}
{"sequence": "CTCTTGTCTTGGGTTCTAACCTGTTGCCA (site CTCTTGTCTTG)", "recombinant barcode read abundance (log10)": 0}
{"sequence": "CTGAGCCCTTGGGTTCTAACCTGTTGCCT (site CTGAGCCCTAG)", "recombinant barcode read abundance (log10)": 0.6}
{"sequence": "CTGAGCCCTTGGGTTCTAACCTGTTGCCT (site CTGCGCCCTAG)", "recombinant barcode read abundance (log10)": 0.448}
{"sequence": "CTGAGCCCTTGGGTTCTAACCTGTTGCCT (site CTGGGCCCTAG)", "recombinant barcode read abundance (log10)": 0.354}
{"sequence": "CTGAGCCCTTGGGTTCTAACCTGTTGCCT (site CTGTGCCCTAG)", "recombinant barcode read abundance (log10)": 0.0331}
{"sequence": "CTGAGCCCTTGGGTTCTAACCTGTTGCTG (site CAGAGCCCTCA)", "recombinant barcode read abundance (log10)": 0.327}
{"sequence": "CTGAGCCCTTGGGTTCTAACCTGTTGCTG (site CTGAGCCCTCA)", "recombinant barcode read abundance (log10)": 1.5}
{"sequence": "CTGCACCCTTGGGTTCTAACCTGTTGCCT (site CGCCACCCTAG)", "recombinant barcode read abundance (log10)": 0.411}
{"sequence": "CTGCACCCTTGGGTTCTAACCTGTTGCCT (site CTGCACCCTAG)", "recombinant barcode read abundance (log10)": 1.57}
{"sequence": "CTGCTGTCTTGGGTTCTAACCTGTTGCCA (site CTGATGTCTTG)", "recombinant barcode read abundance (log10)": 0.154}
{"sequence": "CTGCTGTCTTGGGTTCTAACCTGTTGCCA (site CTGCTGTCTTG)", "recombinant barcode read abundance (log10)": 0.095}
{"sequence": "CTGCTGTCTTGGGTTCTAACCTGTTGCCA (site CTGGTGTCTTG)", "recombinant barcode read abundance (log10)": 0.402}
{"sequence": "CTGCTGTCTTGGGTTCTAACCTGTTGCCA (site CTGTTGTCTTG)", "recombinant barcode read abundance (log10)": 0.0953}
{"sequence": "CTGGATCCTTGGGTTCTAACCTGTTGCCT (site CTCGACCCTAG)", "recombinant barcode read abundance (log10)": 0.0729}
{"sequence": "CTGGATCCTTGGGTTCTAACCTGTTGCCT (site CTGGATCCTAG)", "recombinant barcode read abundance (log10)": 2.25}
{"sequence": "CTGGGCTCTTGGGTTCTAACCTGTTGCCA (site CTGGGCTCTTG)", "recombinant barcode read abundance (log10)": 1.14}
{"sequence": "CTGGGCTCTTGGGTTCTAACCTGTTGCCA (site GTGGGCTCTAG)", "recombinant barcode read abundance (log10)": 0.282}
{"sequence": "CTGGGTTCTTGGGTTCTAACCTGTTGCCT (site CAGGGTTCTAG)", "recombinant barcode read abundance (log10)": 0.0887}
{"sequence": "CTGGGTTCTTGGGTTCTAACCTGTTGCCT (site CCGGGTTCTAG)", "recombinant barcode read abundance (log10)": 0.138}
{"sequence": "CTGGGTTCTTGGGTTCTAACCTGTTGCCT (site CGGGGTTCTAG)", "recombinant barcode read abundance (log10)": 0.312}
{"sequence": "CTGGGTTCTTGGGTTCTAACCTGTTGCCT (site CTGGGTTCTAG)", "recombinant barcode read abundance (log10)": 0.17}
{"sequence": "CTGGTCACTTGGGTTCTAACCTGTTGCGG (site CTAGACACTCC)", "recombinant barcode read abundance (log10)": 0.11}
{"sequence": "CTGGTCACTTGGGTTCTAACCTGTTGCGG (site CTGGTCACTCC)", "recombinant barcode read abundance (log10)": 2.74}
{"sequence": "CTGGTCCCTTGGGTTCTAACCTGTTGCGG (site CTGATCCCTCC)", "recombinant barcode read abundance (log10)": 0.983}
{"sequence": "CTGGTCCCTTGGGTTCTAACCTGTTGCGG (site CTGCTCCCTCC)", "recombinant barcode read abundance (log10)": 0.0151}
{"sequence": "CTGGTCCCTTGGGTTCTAACCTGTTGCGG (site CTGGTCCCTCC)", "recombinant barcode read abundance (log10)": 2.72}
{"sequence": "CTGGTCCCTTGGGTTCTAACCTGTTGCGG (site CTGTTCCCTCC)", "recombinant barcode read abundance (log10)": 0.151}
{"sequence": "CTGTCTCCTTGGGTTCTAACCTGTTGCGT (site AGAAGCACTTG)", "recombinant barcode read abundance (log10)": 0.11}
{"sequence": "CTGTCTCCTTGGGTTCTAACCTGTTGCGT (site CTGTCTCCTAC)", "recombinant barcode read abundance (log10)": 0.833}
{"sequence": "CTGTGGACTTGGGTTCTAACCTGTTGCAG (site CTCTGGACTGT)", "recombinant barcode read abundance (log10)": 0}
{"sequence": "CTGTGGACTTGGGTTCTAACCTGTTGCAG (site CTGTGGACTCT)", "recombinant barcode read abundance (log10)": 1.13}
{"sequence": "CTGTTATCTTGGGTTCTAACCTGTTGCCT (site CTATTATCTAG)", "recombinant barcode read abundance (log10)": 0.127}
{"sequence": "CTGTTATCTTGGGTTCTAACCTGTTGCCT (site CTGTTATCTAG)", "recombinant barcode read abundance (log10)": 0.237}
{"sequence": "CTTAAATCTTGGGTTCTAACCTGTTGCCT (site CTTAAATCTAG)", "recombinant barcode read abundance (log10)": 0.0558}
{"sequence": "CTTAAATCTTGGGTTCTAACCTGTTGCCT (site CTTCAATCTAG)", "recombinant barcode read abundance (log10)": 0.0867}
{"sequence": "CTTAAATCTTGGGTTCTAACCTGTTGCCT (site CTTGAATCTAG)", "recombinant barcode read abundance (log10)": 0.24}
{"sequence": "CTTAAATCTTGGGTTCTAACCTGTTGCCT (site CTTTAATCTAG)", "recombinant barcode read abundance (log10)": 0.165}
{"sequence": "CTTACCGCTTGGGTTCTAACCTGTTGCCT (site CTTACAGCTAG)", "recombinant barcode read abundance (log10)": 0.137}
{"sequence": "CTTACCGCTTGGGTTCTAACCTGTTGCCT (site CTTACCGCTAG)", "recombinant barcode read abundance (log10)": 1.19}
{"sequence": "CTTACCGCTTGGGTTCTAACCTGTTGCCT (site CTTACGGCTAG)", "recombinant barcode read abundance (log10)": 0.235}
{"sequence": "CTTACCGCTTGGGTTCTAACCTGTTGCCT (site CTTACTGCTAG)", "recombinant barcode read abundance (log10)": 0.273}
{"sequence": "CTTAGCTCTTGGGTTCTAACCTGTTGCCT (site CGTAGGTCTAG)", "recombinant barcode read abundance (log10)": 0.009}
{"sequence": "CTTAGCTCTTGGGTTCTAACCTGTTGCCT (site CTTAGCTCTAG)", "recombinant barcode read abundance (log10)": 1.15}
{"sequence": "CTTAGGACTTGGGTTCTAACCTGTTGCCC (site CTTAGGACTAG)", "recombinant barcode read abundance (log10)": 0.374}
{"sequence": "CTTAGGACTTGGGTTCTAACCTGTTGCCC (site CTTAGGACTCG)", "recombinant barcode read abundance (log10)": 0.283}
{"sequence": "CTTAGGACTTGGGTTCTAACCTGTTGCCC (site CTTAGGACTGG)", "recombinant barcode read abundance (log10)": 0.404}
{"sequence": "CTTAGGACTTGGGTTCTAACCTGTTGCCC (site CTTAGGACTTG)", "recombinant barcode read abundance (log10)": 0.00992}
{"sequence": "CTTCACGCTTGGGTTCTAACCTGTTGCCT (site CTTCACACTAT)", "recombinant barcode read abundance (log10)": 0.177}
{"sequence": "CTTCACGCTTGGGTTCTAACCTGTTGCCT (site CTTCACGCTAG)", "recombinant barcode read abundance (log10)": 1.21}
{"sequence": "CTTCAGCCTTGGGTTCTAACCTGTTGCCT (site CTTCAACCTAG)", "recombinant barcode read abundance (log10)": 0.612}
{"sequence": "CTTCAGCCTTGGGTTCTAACCTGTTGCCT (site CTTCACCCTAG)", "recombinant barcode read abundance (log10)": 0.259}
{"sequence": "CTTCAGCCTTGGGTTCTAACCTGTTGCCT (site CTTCAGCCTAG)", "recombinant barcode read abundance (log10)": 0.789}
{"sequence": "CTTCAGCCTTGGGTTCTAACCTGTTGCCT (site CTTCATCCTAG)", "recombinant barcode read abundance (log10)": 0}
{"sequence": "CTTCAGGCTTGGGTTCTAACCTGTTGCCT (site CTTCAGGCTAG)", "recombinant barcode read abundance (log10)": 0.594}
{"sequence": "CTTCAGGCTTGGGTTCTAACCTGTTGCCT (site CTTGAGACTAG)", "recombinant barcode read abundance (log10)": 0.0551}
{"sequence": "CTTCCTTCTTGGGTTCTAACCTGTTGCCT (site CTCCCTTCTAA)", "recombinant barcode read abundance (log10)": 0.128}
{"sequence": "CTTCCTTCTTGGGTTCTAACCTGTTGCCT (site CTTCCTTCTAG)", "recombinant barcode read abundance (log10)": 0.543}
{"sequence": "CTTCGAGCTTGGGTTCTAACCTGTTGCCG (site CTTCGAGCTCA)", "recombinant barcode read abundance (log10)": 0.112}
{"sequence": "CTTCGAGCTTGGGTTCTAACCTGTTGCCG (site CTTCGAGCTCC)", "recombinant barcode read abundance (log10)": 0.0907}
{"sequence": "CTTCGAGCTTGGGTTCTAACCTGTTGCCG (site CTTCGAGCTCG)", "recombinant barcode read abundance (log10)": 0.873}
{"sequence": "CTTCGAGCTTGGGTTCTAACCTGTTGCCG (site CTTCGAGCTCT)", "recombinant barcode read abundance (log10)": 0.138}
{"sequence": "CTTGAGCCTTGGGTTCTAACCTGTTGCGT (site CTTGAGCCTAC)", "recombinant barcode read abundance (log10)": 2.87}
{"sequence": "CTTGAGCCTTGGGTTCTAACCTGTTGCGT (site GTTGAGTCTAC)", "recombinant barcode read abundance (log10)": 0.0339}
{"sequence": "CTTGGGCCTTGGGTTCTAACCTGTTGCGG (site CTTGGGCCTCC)", "recombinant barcode read abundance (log10)": 2.67}
{"sequence": "CTTGGGCCTTGGGTTCTAACCTGTTGCGG (site GTTGGGGCTCC)", "recombinant barcode read abundance (log10)": 0.0414}
{"sequence": "CTTGGGTCTTGGGTTCTAACCTGTTGCCT (site CTTGGGTCTAG)", "recombinant barcode read abundance (log10)": 0.998}
{"sequence": "CTTGGGTCTTGGGTTCTAACCTGTTGCCT (site CTTGGTTCTAG)", "recombinant barcode read abundance (log10)": 0.122}
{"sequence": "CTTTGTACTTGGGTTCTAACCTGTTGCCT (site CCTTGTACTAG)", "recombinant barcode read abundance (log10)": 0.265}
{"sequence": "CTTTGTACTTGGGTTCTAACCTGTTGCCT (site CTTTGTACTAG)", "recombinant barcode read abundance (log10)": 0.419}
{"sequence": "GAAAACTCTTGGGTTCTAACCTGTTGCCT (site AGGTCTACTCC)", "recombinant barcode read abundance (log10)": 0.104}
{"sequence": "GAAAACTCTTGGGTTCTAACCTGTTGCCT (site GAAAACTCTAG)", "recombinant barcode read abundance (log10)": 1.11}
{"sequence": "GAAAAGTCTTGGGTTCTAACCTGTTGCTG (site CTCGCTCCTTG)", "recombinant barcode read abundance (log10)": 0.185}
{"sequence": "GAAAAGTCTTGGGTTCTAACCTGTTGCTG (site GAAAAGTCTCA)", "recombinant barcode read abundance (log10)": 1.28}
{"sequence": "GAAAATCCTTGGGTTCTAACCTGTTGCCT (site GAAAATCCTAG)", "recombinant barcode read abundance (log10)": 0.304}
{"sequence": "GAAAATCCTTGGGTTCTAACCTGTTGCCT (site GAAACTCCTAG)", "recombinant barcode read abundance (log10)": 0.0115}
{"sequence": "GAAAATCCTTGGGTTCTAACCTGTTGCCT (site GAAAGTCCTAG)", "recombinant barcode read abundance (log10)": 0.0177}
